Measured values taken from publication PMC11610669, “A Spectroscopic Study on the Amyloid‐β Interaction with Clicked Peptide‐Porphyrin Conjugates: a Vision Toward the Detection of Aβ Peptides in Aqueous Solution” (Chembiochem, 2024).

Legend:
SH-SY5Y = assay: Live cell confocal fluorescence imaging; type: cell-based, human; conditions: RA-differentiated SH-SY5Y, 5 μM, 24 h, excitation 405 nm, emission 600–700 nm
Description: The intracellular localization of porphyrins in living cells has already been reported in the literature.[50, 51] […] The ability of our compounds to associate with cells or to be taken up by them was investigated by live cell confocal fluorescence and flow cytometry. For this purpose, we exploited the fluorescence of the porphyrin moiety. Fully differentiated SH‐SY5Y cells were exposed to 5 μM of each compound for 24 h, and then fluorescence spectra inside and outside cells were measured as described in the experimental section. The images reported in Figure 6, panel a, show the emission spectra recorded (pixel by pixel) inside cells, compared to the emission spectra recorded for control cells (no porphyrins in the growth medium). A specific porphyrin signal recorded between 600 nm and 700 nm only in the exposed sample, provides evidence that the porphyrin‐conjugated compounds are distributed within the cells. We first measured the emission spectra of each compound to confirm that the fluorescent properties measured in vitro were maintained under the conditions applied during the biological assay. Once the specific emission peak typical of porphyrins was detected inside the cells, we measured the average fluorescence intensity for each compound under study. Although modest, the signal was detected in almost every cell under the microscope stage. […]

Aβ42 = Aβ42 (Homo sapiens, UniProt P05067); assay: Grating-Coupled Interferometry (GCI) binding to immobilized Aβ42
Description: The Grating‐Coupled Interferometry (GCI) is a widely used analytical technique for characterizing intermolecular interactions. It allows quantitative measurements of both the affinity and the kinetics of the binding events. This high sensitivity label‐free method was exploited to measure the interactions of Aβ42 with Cu‐Ph‐Pep , Ph‐Pep , and Zn‐Ph‐Pep (Figure 5S). Control experiments with pristine MCPTPyP and the peptide GPGKLVFF ( Pep ) were carried out for comparison. The calculated association and dissociation kinetic constants (kon and koff, respectively) and the thermodynamic binding constant (KD), are summarized in Table 1. The obtained values indicate that all the conjugates show good affinities with Aβ42. It is also clear from Table 1 that the peptide moiety is fundamental for the molecular recognition of the Aβ42 peptide.[48] […] Nevertheless, it is important to emphasize that the interaction with Aβ42 is primarily mediated by the peptide rather than by the porphyrin macrocycle. We next investigated whether these peptide derivatives could be employed as molecular probes for the detection of Aβ42 aggregated species. A new set of CD experiments was then carried out with Aβ42 at 20 μM both in the absence and in the presence of the porphyrin‐peptide conjugates at 1 : 1 molar ratio in the UV (195–350) and Visible (350–500) regions. […] The signal rapidly evolved toward the typical β‐sheet profile (already within 24 h) with a single minimum at 216 nm, an x‐axis intercept at 202 nm and a maximum shift at a wavelength 195 nm.[49] […] For the sake of comparison, the CD spectra of the porphyrin‐peptide conjugates at 20 μM were also recorded in the same experimental conditions, both in the far‐UV and Visible regions (Figure 6S).
The experiments were performed on a Creoptix WAVE system (Creoptix). Borate buffer (100 mM sodium borate pH 9.0, 1 M NaCl) was used for chip conditioning. Aβ42 peptide (20 μg/ml in Na Acetate pH 4.5) was immobilized on 4PCH WAVE chips (quasiplanar polycarboxylate surface; Creoptix) according to the manufacturer instructions at a final density of 1910±40 pg/mm^2. Single‐cycle sequential injections of dilution series for each Porphyrin‐Peptide conjugates in running buffer (PBS, 0.005 % Tween 20, 1 % DMSO, 0.2 mg/ml BSA) were performed at 25 °C, using a flow rate of 100 μl/min. In details, for the conjugate Cu‐Ph‐Pep , 1 : 2 dilution series starting from 200 μM were injected for 10 s association time, 45 s dissociation time, followed by a dissociation time of 600 s for the last higher concentration injection. Finally, for the conjugates Ph‐Pep and Zn‐Ph‐Pep , 1 : 2 dilution series starting from 50 μM and 100 uM, respectively, were injected for 30 s association time, 45 s dissociation time, followed by a dissociation time of 600 s for the last higher concentration injection. Blank injections were used for double referencing and a DMSO calibration curve for bulk correction. Analysis and correction of the obtained data were performed using the Creoptix WAVE control software (correction applied: X and Y offset; DMSO calibration; double referencing). Mass transport binding models with bulk correction were used to fit all experiments. All the experiments have been performed at least in triplicate.
Figure 5S. Quantitative binding kinetics of Aβ42 vs a) MCPTPyP; b) Cu-Ph-Pep; c) Ph-Pep; d) Zn-Ph-Pep; and e) Pep measured by GCI. All curves were blank subtracted. Experiments were performed in triplicate. All the quality assessments (i.e., χ2 shown in Table 1 of the main text , parameter errors, and residual plots were acceptable; the sensorgrams had sufficient curvatures an d the kinetic constant k off were within the measurable range) were fulfilled. Descriptive Statistical Analysis was employed to calculate the mean of the obtained values of k on, koff and KD as a measure of central tendency and standard deviations of the former values were computed as a measure of dispersion.
Figure 6S. […]

Sequence of Aβ42 (P05067 672-713 limits assumed): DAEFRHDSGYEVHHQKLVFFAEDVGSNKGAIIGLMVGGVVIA

Kd (Aβ42; GCI (Creoptix WAVE), Aβ42 immobilized on 4PCH chip, PBS, 0.005 % Tween 20, 1 % DMSO, 0.2 mg/ml BSA, 25 °C, 100 μl/min, mass transport binding model, mean ± SD, at least triplicate): 215 ± 13 µM | χ^2 (average of the squared residuals, fitting confidence) (Aβ42; GCI fit quality parameter): 0.63±0.06
SMILES: C[n+]1ccc(-c2c3nc(c(-c4cc[n+](C)cc4)c4ccc([nH]4)c(-c4cc[n+](C)cc4)c4nc(c(-c5ccc(C(=O)O)cc5)c5ccc2[nH]5)C=C4)C=C3)cc1.[Cl-].[Cl-].[Cl-] [MCPTPyP, 5‐(4‐carboxyphenyl)‐10,15,20‐(tri‐N‐Methyl‐4‐Pyridyl) Porphyrin trichloride, reference compound]
cell entry / intracellular distribution (SH-SY5Y): able to cross the plasma membrane and to distribute within the cells
